Measurements from patent publication US11260116B2, “Vaccine compositions comprising an amphipathic compound, a neoantigen and a hydrophobic carrier, and methods of use thereof” (IMMUNOVACCINE TECHNOLOGIES INC., priority 2016, dated 2022).
Where two headings read alike, the source gives them in different places.

Columns and labels:
[1] = cited from earlier work
Mut30 neoantigen = assay: IFN-gamma ELISPOT of splenocytes from vaccinated mice; format: in vivo; conditions: Example 3, FIG. 2; C57BL/6 VAF/Elite Crl mice; DNA- or RNA-based poly I:C; single immunization; eight days after vaccination
Protocol: Pathogen free, C57BL/6 VAF/Elite® Crl mice, 6-8 weeks of age, were purchased from Charles River Laboratories (St. Constant, PQ) and housed according to institutional guidelines with water and food ad libitum under filter controlled air circulation.
Eight days after vaccination, mice were terminated and spleens collected. […] After 18 hours of culture, plates were developed and the number of spot forming units (SFU) counted using Immunospot Reader (C.T.L.). […] Statistical analysis was performed by 2-way ANOVA with Bonferroni post test comparing group responses to Mut30 peptide: *p<0.05, ***p<0.001.
Oil-based depot vaccine formulations were prepared with Mut30 antigen at a higher (100 micrograms) and lower (50 micrograms) dose.
To prepare the oil-based formulations, the Mut30 peptide (low or high dose amount), polyI:C adjuvant (DNA or RNA) and T-helper epitope (A16L peptide) were first reconstituted in an acetate buffer (0.1M, pH 9.5) with DOPC and cholesterol (Lipoid, Germany). The vaccine components were then lyophilized to form a dry cake. Just prior to injection, the dry cake was reconstituted in ISA51 VG oil (SEPPIC, France).
Mice in group 1 (n=6) were vaccinated with 100 microliters of an oil-based depot vaccine containing 100 micrograms of Mut30 neoantigen, 50 micrograms of A16L peptide, 40 micrograms of DNA-based poly I:C, 12 milligrams of DOPC and 1.2 milligrams of cholesterol. […]

mutated peptide = conditions: aqueous formulation, mice, cited from earlier work

Compound	bioavailability by route of administration ([1]; intravenous infusion vs parenteral and oral)	Total systemic clearance of CPA and its metabolites ([1]; patients)	elimination half-life on repeated administration ([1]; repeated administration)	peak plasma levels of the parent ([1]; vary between patients)	IFN-gamma ELISPOT immune response to Mut30, high (100 micrograms) vs low (50 micrograms) dose (Mut30 neoantigen)	immune reaction to Mut30 reported by Castle 2012 (mutated peptide)	immune reaction to Mut30 reported by Castle 2012 (mutated peptide; listed as Mut30 neoantigen)
O=P1(N(CCCl)CCCl)NCCCO1 (stereo not shown) [Cyclophosphamide, N,N-bis(2-chloroethyl)-1,3,2-oxazaphosphinan-2-amine 2-oxide]	little difference in bioavailability	5 to 9 h	shorten elimination half-life	3 to 11 h	–	–	–
Mut30: Kif18b neoantigen (K739N) from B16F10 melanoma, PSKPSFQEFVDWENVSPELNSTDQPFL (SEQ ID NO: 2), from Castle 2012 (Mut30 Neoantigen)	–	–	–	–	No statistically significant difference	strong immune reaction preferentially against the mutated peptide	strong mutation-specific immune responses
